This is an account of results in article PMC9034380 (RSC Advances, 2021).

Holding throughout (type): cell-based
The test system of one experiment is Hh signaling pathway. As to the kind of experiment: Gli-luciferase. As to conditions: for IC50: read-out: Gli-luc reporter IC50.
The target of another experiment is wild-type Smo (Mus musculus, UniProt P56726). As to the kind of experiment: Gli-Luc reporter assay in NIH3T3-Gli-Luc cells overexpressing wild-type Smo. (In general: In a reporter assay the amount or activity of a reporter protein is the signal.)
A further experiment deals with Smo D477G (Mus musculus, UniProt P56726, D477G). As to the kind of experiment: Gli-Luc reporter assay in NIH3T3-Gli-Luc cells overexpressing Smo D477G.
A further experiment concerns Daoy cells. As to the kind of experiment: Cell proliferation. As to conditions: Homo sapiens, 48 h, read-out: cell viability.
A further experiment deals with Smo (Homo sapiens, UniProt Q99835). As to the kind of experiment: Smo ciliary localization in NIH3T3 cells expressing Smo treated with Shh.
Smo, sequence (Q99835 28-787): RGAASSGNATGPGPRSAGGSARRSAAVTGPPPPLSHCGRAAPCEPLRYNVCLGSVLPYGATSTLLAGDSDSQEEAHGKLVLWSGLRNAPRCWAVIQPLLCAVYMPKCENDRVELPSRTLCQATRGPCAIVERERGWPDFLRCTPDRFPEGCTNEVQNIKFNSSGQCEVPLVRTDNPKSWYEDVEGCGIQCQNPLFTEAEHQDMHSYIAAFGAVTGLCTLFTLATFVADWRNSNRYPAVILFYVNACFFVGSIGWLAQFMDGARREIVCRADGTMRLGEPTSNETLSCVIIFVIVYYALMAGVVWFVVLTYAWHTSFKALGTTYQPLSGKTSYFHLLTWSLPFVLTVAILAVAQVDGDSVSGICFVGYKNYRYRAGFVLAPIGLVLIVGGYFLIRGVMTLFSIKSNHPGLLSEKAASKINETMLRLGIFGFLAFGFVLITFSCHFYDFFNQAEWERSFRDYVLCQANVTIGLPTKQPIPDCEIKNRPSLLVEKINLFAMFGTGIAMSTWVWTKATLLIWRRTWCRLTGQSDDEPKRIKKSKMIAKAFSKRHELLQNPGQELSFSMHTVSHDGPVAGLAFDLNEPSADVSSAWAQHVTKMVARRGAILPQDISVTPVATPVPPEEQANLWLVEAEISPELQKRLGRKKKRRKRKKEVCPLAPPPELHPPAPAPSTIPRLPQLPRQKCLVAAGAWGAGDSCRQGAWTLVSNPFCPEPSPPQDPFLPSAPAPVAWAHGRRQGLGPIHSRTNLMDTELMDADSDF

Smo D477G, sequence (P56726 33-793 D477G): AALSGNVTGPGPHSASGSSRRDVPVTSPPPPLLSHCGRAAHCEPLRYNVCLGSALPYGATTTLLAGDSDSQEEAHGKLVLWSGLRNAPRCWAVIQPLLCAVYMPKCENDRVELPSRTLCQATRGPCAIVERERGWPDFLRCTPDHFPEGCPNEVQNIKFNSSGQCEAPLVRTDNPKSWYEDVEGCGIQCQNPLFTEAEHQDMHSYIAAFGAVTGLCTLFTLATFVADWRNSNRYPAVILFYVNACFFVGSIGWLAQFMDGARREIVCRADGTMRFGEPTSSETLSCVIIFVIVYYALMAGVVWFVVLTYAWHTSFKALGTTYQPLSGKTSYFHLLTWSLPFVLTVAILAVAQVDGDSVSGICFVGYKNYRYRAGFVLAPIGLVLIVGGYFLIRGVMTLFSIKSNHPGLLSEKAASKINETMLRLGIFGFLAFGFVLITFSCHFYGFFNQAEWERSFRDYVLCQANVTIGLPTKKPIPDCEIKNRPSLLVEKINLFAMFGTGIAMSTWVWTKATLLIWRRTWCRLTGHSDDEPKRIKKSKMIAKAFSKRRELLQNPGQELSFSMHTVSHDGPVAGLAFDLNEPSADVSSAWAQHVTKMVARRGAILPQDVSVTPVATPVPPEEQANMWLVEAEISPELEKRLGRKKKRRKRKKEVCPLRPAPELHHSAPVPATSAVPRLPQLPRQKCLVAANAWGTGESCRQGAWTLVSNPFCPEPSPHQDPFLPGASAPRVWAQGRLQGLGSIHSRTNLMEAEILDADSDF
wild-type Smo, sequence (P56726 33-793): as the sequence (P56726 33-793 D477G) above, with G445D counted along it

On to `CS(=O)(=O)c1ccc(C(=O)Nc2ccc(Cl)c(-c3ccccn3)c2)c(Cl)c1` [Compound 1, vismodegib, reference compound], for which the half-maximal inhibitory concentration (IC50) in the experiment on Hh signaling pathway is 20 ± 10 nM.

With `COc1cc(NC(=O)c2cccnc2Cl)ccc1C(=O)Nc1ccc(Cl)c(-c2nc3ccccc3[nH]2)c1` [Compound 14], the IC50 in the experiment on Hh signaling pathway was found to be 50 ± 20 nM.

With `COc1cc(NC(=O)c2cccnc2)ccc1C(=O)Nc1ccc(Cl)c(-c2nc3ccccc3[nH]2)c1` [Compound 16], in the experiment on Hh signaling pathway, the IC50 was found to be 80 ± 20 nM.

With `COc1cc(NC(=O)c2ccccc2Cl)ccc1C(=O)Nc1ccc(Cl)c(-c2ncc(-c3ccccc3)[nH]2)c1` [Compound 17], the IC50 in the experiment with Hh signaling pathway amounted to 120 ± 60 nM.

Take `COc1cc(NC(=O)c2ccc(Cl)cc2Cl)ccc1C(=O)Nc1ccc(Cl)c(-c2ncc(-c3ccccc3)[nH]2)c1` [Compound 18]: in the experiment with Hh signaling pathway (Gli-luc IC50 ratio to compound 17), the “loss of potency vs compound 17” value came out at 2.2 fold. Besides, the IC50 in the experiment with Hh signaling pathway stood at 260 ± 80 nM.

On to `COc1cc(NC(=O)c2ccc(F)cc2)ccc1C(=O)Nc1ccc(Cl)c(-c2ncc(-c3ccccc3)[nH]2)c1` [Compound 20], for which the IC50 with Hh signaling pathway came to 250 ± 40 nM.

As to `COc1cc(NC(=O)c2cccnc2Cl)ccc1C(=O)Nc1ccc(Cl)c(-c2ncc(-c3ccccc3)[nH]2)c1` [Compound 21], the “potency compared to compound 3” value with Hh signaling pathway (Gli-luc reporter, fold higher than compound 3) was found to be 6 fold. Moreover, the concentration for half-maximal inhibition (IC50) in the experiment with Hh signaling pathway was 30 ± 10 nM; on wild-type Smo it was 39 nM; against Smo D477G, 96 nM. For the same compound, at Smo D477G (NIH3T3-Gli-Luc cells overexpressing Smo D477G), the “Hh pathway inhibition in mutant D477G” value is on record as “slightly decreased”. The “shift in IC50, mutant D477G vs WT” value on Smo D477G (Smo D477G vs wild-type Smo) was found to be 2.4 fold. For the same compound, in the experiment with Daoy cells, the viability at 1 µM turned out to be 72%. Further, the viability at 10 µM in the experiment with Daoy cells was 43%. Also, the “Smo ciliary translocation” value on Smo is “sharp drop”.

With `COc1cc(NC(=O)c2ccc(Cl)nc2)ccc1C(=O)Nc1ccc(Cl)c(-c2ncc(-c3ccccc3)[nH]2)c1` [Compound 22], in the experiment with Hh signaling pathway, the concentration for half-maximal inhibition (IC50) is 150 ± 80 nM.

As to `COc1cc(NC(=O)c2cccnc2)ccc1C(=O)Nc1ccc(Cl)c(-c2ncc(-c3ccccc3)[nH]2)c1` [Compound 23], the IC50 in the experiment on Hh signaling pathway turned out to be 70 ± 20 nM.

The IC50 is the point on the concentration scale where inhibition reaches its midpoint. The viability is a per cent measure of how many cells are alive, often set against a control.
